The test system of series [1] is Pseudomonas aeruginosa strain 1034. The series can be described thus: In vivo antimicrobial activity, infected skin wound. Set-up: species or system BALB/c mouse. Here is the method:
By using Hp1404-T1e found to have the most excellent antimicrobial activity among the peptides that are prepared by the method of Example 1, in vivo antimicrobial activity was measured. Specifically, among the Pseudomonas aeruginosa strains, strain 1034 was selected and tested. The strain was prepared by washing 3 times with PBS buffer. Ciprofloxacin antibiotic was used as a control group. A BALB/c mouse (6 week old) was shaved clean and a wound with pre-determined size was created thereon. Then, the wound site was injected intracutaneously with Pseudomonas aeruginosa strain 1034 ([…], 2×10^5 CFU/ml). After the bacterial infection, the peptide and antibiotic, each prepared at a concentration of 0.1 mg/ml and 0.2 mg/ml, respectively, were intracutaneously injected, and the observation was made everyday. On each day, the skin tissues were sampled and smeared on an NB solid medium. The smeared medium was incubated in an incubator for 18 hours, and the number of grown colonies was counted and expressed in %.

The test system of the next series is E. coli. The series can be described thus: MIC, E. coli. It counts as cell-based, Escherichia coli. The note with it: E. coli (ATCC 25922), 18 hours at 37° C. The source says:
(§1) To compare the antimicrobial activity among the peptides produced by the method of Example 1, the inventors of the present invention measured the minimal growth inhibitory concentration (MIC), which is minimum concentration of the peptide showing no dissociation of bacterial cells.
(§2) Specifically, the bacterial strain described in the following Table 2 was purchased and cultured to a mid-log phase in each medium with a composition suitable for each strain. Then, after dilution to bacterial cell concentration of 2×10^4 cells/100 μl, the cells were inoculated to a microtiter plate (NUNC, USA). Thereafter, Hp1404-T1, Hp1404-T1a, Hp1404-T1b, Hp1404-T1c, Hp1404-T1d or Hp1404-T1e peptide which has been synthesized in Example 1 above was subjected to serial dilution, ½ times for each, with BSA (bovine serum albumin) solution in a 96-well plate. After adding the cells to a plate, the cells were cultured for 18 hours at 37° C. By using a microtiter plate reader (Merck Elisa reader, Germany), the absorbance was measured at a wavelength of 600 nm to determine the MIC value of each bacterial strain. As a control group, Hp1404 as a mother peptide was used.

A further series has as its system S. aureus. In words: MIC, S. aureus. Format: cell-based, Staphylococcus aureus. The note with it: S. aureus (ATCC 25923), 18 hours at 37° C.
Description: as §1, §2

The test system of another series is L. monocytogenes. In words: MIC, L. monocytogenes. It counts as cell-based, Listeria monocytogenes. The note with it: L. monocytogenes (KCTC 3710), 18 hours at 37° C.
Description: as §1, §2

Series [2] relates to erythrocytes of a mouse (Balb/c). In words: Hemolytic activity. Format: cell-based. The method, then:
To compare the cytotoxicity among the peptides that are produced by the method of Example 1, erythrocyte hemolytic activity of the synthesized peptide was measured.
Specifically, erythrocytes of a mouse (Balb/c, 6 week old, female) were diluted in physiological saline (PBS, pH 7.0) to have concentration of 8%, and then subjected to a treatment with Hp1404, Hp1404-T1, Hp1404-T1a, Hp1404-T1b, Hp1404-T1c, Hp1404-T1d or Hp1404-T1e, each at concentration of 6.25, 12.5, 25.0, 50.0, 100.0 and 200.0 μM/well, respectively, followed by a reaction for 1 hour at 37° C. After that, the amount of hemoglobin contained in a supernatant collected by centrifuge at 1,000×g was determined by measuring the absorbance at a wavelength of 414 nm. As a control group to be used as a reference for cell disruption level, the supernatant collected by a treatment with 1% Triton X-100 (Sigma, USA) and a reaction for 1 hour at 37° C. was used to measure the absorbance. By setting the resulting absorbance value at 100%, the hemolytic activity of each peptide was calculated using the following mathematical formula 1. Erythrocyte disrupting ability (hemolysis) (%)=(Absorbance A−Absorbance B)/(Absorbance C−Absorbance B)×100 [Mathematical formula 1] (in the above formula, Absorbance A indicates the absorbance of a reaction solution treated with each peptide, in which the absorbance is measured at a wavelength of 414 nm; Absorbance B indicates the absorbance of a reaction solution treated with PBS, in which the absorbance is measured at a wavelength of 414 nm; and Absorbance C indicates the absorbance of a reaction solution treated with 1% Triton X-100, in which the absorbance is measured at a wavelength of 414 nm).

The nature of series [3]: Cytotoxicity in normal cell line (MTT). Format: cell-based. The note with it: human, HaCaT keratinocytes, read-out: Cell survival ability; for viability at 24 h, 6.25 µM: peptide concentration 6.25 μM; for viability at 24 h, 12.5 µM: peptide concentration 12.5 μM; for viability at 24 h, 25 µM: peptide concentration 25 μM; for viability at 24 h, 50 µM: peptide concentration 50 μM; for viability at 24 h, 100 µM: peptide concentration 100 μM; for viability at 24 h, 200 µM: peptide concentration 200 μM, HaCaT. The method, then: To determine the cytotoxicity of the peptide produced by the method of Example 1 in normal cell line, toxicity was measured by using human keratinocytes (HaCaT cell line, Dr. N E. Fusenig, Heidelberg, Germany).
Specifically, HaCaT cells which have been cultured in DMEM medium containing 10% FBS (Fetal Bovine Serum) were aliquoted in a 96-well plate to have 2×10^5 cells per well. After culturing them for 24 hours, the cells were subjected to a treatment with Hp1404, Hp1404-T1, Hp1404-T1a, Hp1404-T1b, Hp1404-T1c, Hp1404-T1d, or Hp1404-T1e, each at concentration of 6.25, 12.5, 25.0, 50.0, 100.0 or 200.0 μM/well, followed by reaction for 24 hours in a 5% CO2 incubator. After 24 hours, a reaction solution containing 0.5 mg/ml MTT (Thiazolyl Blue Tetrazolium Bromide) dissolved in physiological saline (PBS) was added in an amount of 100 μl to each well and the reaction was allowed to occur for 4 hours. After that, the supernatant was removed, and, by dissolving MTT crystals that are formed by adding 200 μl of DMSO (dimethyl sulfoxide), the absorbance at 560 nm was measured to determine the cell survival ability.

Series [4] is described as follows: Stability against trypsin enzyme (RP-HPLC). It counts as in vitro ADME. The conditions noted are these: 20 nM trypsin, 37° C., read-out: amount of remaining peptide. Here is the method: To determine whether or not the peptides prepared by the method of Example 1 have stability against an enzyme, RP-HPLC (reverse-phase HPLC) was carried out. Specifically, 20 μg of the peptide was reacted with 100 μl of trypsin at concentration of 20 nM for 1 to 2 hours at 37° C. After the reaction, 20 μl of the reaction product was applied to RP-HPLC, and the amount of remaining peptide was examined.

In series [5] the test system is lipopolysaccharide (LPS) isolated from P. aeruginosa. The series can be described thus: Binding ability between lipopolysaccharide (LPS) and peptide. The note with it: peptide at 1×MIC. Here is the method: By using the peptides prepared by the method of Example 1, binding to lipopolysaccharide (LPS), which is a constitutional component of a cell wall of Gram-negative bacteria, was examined. LPS used in the present invention was isolated from P. aeruginosa. Lipopolysacchride (0 to 100 μg/ml) was diluted with 10 mM sodium phosphate buffer (pH 7.2), reacted with each peptide at a concentration of 1× or 2×MIC, and then cultured with the bacteria at 2×10^5 CFU/ml. By measuring the absorbance at 600 nm, the binding ability to the peptide was determined. Additionally, after reacting 0.1% […] with the peptide (40 μM) in an incubator, the secondary structure was examined by circular dichroism (CD) spectroscopy.

The test system of series [6] is S. aureus or P. aeruginosa membrane. In words: Flow cytometry with propidium iodide. It counts as cell-based. The note with it: 2×MIC, 1 hour at 37° C. The method, then:
Specifically, S. aureus or P. aeruginosa was treated for 1 hour at 37° C. with the mother peptide Hp1404, or Hp1404-T1c, Hp1404-T1d or Hp1404-T1e peptide (at concentration of 2×MIC). After that, the supernatant was removed by centrifuge (10,000 rpm) and stained with propidium iodide (PI, concentration of 10 μg/ml) for 30 minutes at 4° C. Thereafter, unbound propidium iodide was removed by centrifuge, and the problem of cell aggregation phenomenon was solved by adding physiological saline (PBS) in an amount of 1 ml.

The test system of a further series is plasmid DNA (pRSETB). The series can be described thus: Binding between antimicrobial peptide and DNA (gel electrophoresis). The conditions noted are these: peptide/DNA ratio 0.25:1 to 4:1, 10 minutes at 37° C. The method, then: To figure out the working mechanism of the synthetic peptides of the present invention for showing the antimicrobial activity, electrophoresis was carried out to examine the possible binding of synthetic peptides, i.e., Hp1404, […], Hp1404-T1d and Hp1404-T1e, to DNA as an internal material of bacteria.
Specifically, after reacting the plasmid DNA (pRSETB, 260 ng) with the peptide at different ratio (i.e., peptide/DNA ratio is as follows for lane number 1 to lane number 8: DNA only, 0.25:1, 0.5:1, 1:1, 1.5:1, 2:1, 3:1, and 4:1. respectively) for 10 minutes at 37° C., they were subjected to electrophoresis using 1% agarose gel followed by ethidium bromide (EtBr) staining and UV visualization.

From patent US11117931B2, “Antimicrobial peptide derived from Hp1404 peptide and uses thereof” (priority 2017, dated 2021) come the findings set out here.

Where no end group is shown, it is not given here. A value given as a limit tells only on which side of the number the result lay.

Regarding `O=C(O)c1cn(C2CC2)c2cc(N3CCNCC3)c(F)cc2c1=O` [ciprofloxacin, reference compound], the wound healing entry in series [1] (0.1 mg/ml and 0.2 mg/ml, intracutaneous, observed everyday) was “no wound healing at all”. Further, the “number of colonies, compared with peptide treatment” value in [1] (treated after the bacterial infection) was “higher than that obtained from the peptide treatment condition”.
Regarding ILGKLWEGVKSI-NH2 [Hp1404-T1], the Minimal inhibitory concentration in the series on E. coli, in the series on S. aureus and in the series with L. monocytogenes was above 25 µM in each case. Moreover, the Erythrocyte disrupting ability in series [2] (peptide concentration 6.25 μM), in [2] (peptide concentration 12.5 μM), in series [2] (peptide concentration 25 μM), in [2] (peptide concentration 50 μM) and in [2] (peptide concentration 100 μM) was 0% throughout. For the same compound, the viability at 24 h, 6.25 µM in [3] was 100%. Also, the viability at 24 h, 12.5 µM in [3] came out at 100%. Besides, in [3], the viability at 24 h, 25 µM came to 100%. The viability at 24 h, 50 µM in series [3] is 100%. In addition, the viability at 24 h, 100 µM in series [3] was 100%. For the same compound, the viability at 24 h, 200 µM in series [3] was 100%.
In the case of ILKKLLEGVKSI-NH2 [Hp1404-T1b], the Minimal inhibitory concentration in the series on E. coli, in the series with S. aureus and in the series on L. monocytogenes was above 25 µM throughout. Moreover, the Erythrocyte disrupting ability in series [2] (peptide concentration 6.25 μM) turned out to be 0.07%; in series [2] (peptide concentration 12.5 μM) it was 0.19%; in [2] (peptide concentration 25 μM), 0%; in series [2] (peptide concentration 50 μM), 0%; in series [2] (peptide concentration 100 μM), 0%. Also, the viability at 24 h, 6.25 µM in [3] stood at 100%. In series [3], the viability at 24 h, 12.5 µM is 100%. Further, in [3], the viability at 24 h, 25 µM was 100%. Besides, the viability at 24 h, 50 µM in [3] is 100%. The viability at 24 h, 100 µM in series [3] is 80.9%. In addition, the viability at 24 h, 200 µM in series [3] was found to be 31.9%.
In series [2] (peptide concentration 6.25 μM), ILKKLLKGVKSI-NH2 [Hp1404-T1c] returned an Erythrocyte disrupting ability of 0%. In addition, the Erythrocyte disrupting ability in series [2] (peptide concentration 12.5 μM) came out at 0%. Besides, the Erythrocyte disrupting ability in series [2] (peptide concentration 25 μM) came to 0%. For the same compound, in series [2] (peptide concentration 50 μM), the Erythrocyte disrupting ability came out at 0%. The Erythrocyte disrupting ability in series [2] (peptide concentration 100 μM) is given as 0%. In series [3], the viability at 24 h, 6.25 µM is 100%; the viability at 24 h, 12.5 µM was 100%; the viability at 24 h, 25 µM came to 100%; the viability at 24 h, 50 µM stood at 51.3%. Further, the viability at 24 h, 100 µM in [3] amounted to 48.6%. For the same compound, the fraction remaining (usually what is left of the initial amount, in per cent) at 1 h, 200 μg/mL in series [4] (reaction for 1 hour) was at least 80%. The amount remaining at 2 h, 200 μg/mL in series [4] (reaction for 2 hours) was found to be 80%. For the same compound, the “binding to LPS, rank order” value in [5] is “binding to LPS increases in order of Hp1404-T1e, Hp1404-T1d, Hp1404-T1c, and Hp1404”. For the same compound, the “propidium iodide fluorescence signal shift (membrane damage)” value in [6] is listed as “no such shift of fluorescence signal”. Moreover, the “binding to DNA” value in the series with plasmid DNA (pRSETB) is given as “did not bind to any DNA”.
ILKKLWEGVKSI-NH2 [Hp1404-T1a] had an Erythrocyte disrupting ability in series [2] (peptide concentration 6.25 μM) of 0%. For the same compound, the Erythrocyte disrupting ability in series [2] (peptide concentration 12.5 μM) is 0%. For the same compound, the Erythrocyte disrupting ability in [2] (peptide concentration 25 μM) amounted to 0%. Besides, in series [2] (peptide concentration 50 μM), the Erythrocyte disrupting ability amounted to 0%. The compound also showed an Erythrocyte disrupting ability in [2] (peptide concentration 100 μM) of 0%. In series [3], the viability at 24 h, 6.25 µM was determined as 100%; the viability at 24 h, 12.5 µM was found to be 100%; the viability at 24 h, 25 µM was 100%; the viability at 24 h, 50 µM is 100%. Further, in series [3], the viability at 24 h, 100 µM amounted to 100% and the viability at 24 h, 200 µM was 30.7%.
